In patent US20060127967A1, “In vitro test for studying compound predicting pharmacologic and/or harmacokinetic and/or pharmacodynamic parameters of a compound” (priority 2002, published 2006):
Counter-ions that a name gives are not always drawn.

Legend:
Tetrahymena thermophila = Tetrahymena thermophila cell area, computerized morphometric/image analysis bioassay; assay type: cell-based; settings: 6 hours exposure, various concentrations, at least 100 cells per sample
Method: Tetrahymena thermophila was grown axenically at 34 ?C in proteosepeptone yeast salts (PPYS) complex medium. Test cultures were prepared by inoculating the protozoa from a stock culture into PPYS to produce initial culture of ˜5000 cell/ml. The cell cultures were then grown for 24 hours at 34 ?C. In the beginning of the experiment the culture was transferred into 3 ml test tubes and exposed to the various concentrations of the tested material. Samples were withdrawn 6 hours following the exposure to the tested material. The samples fixed with formaldehyde solution were placed on the hemocytometer, observed under microscope and the area of tetrahymena was evaluated by computerized morphometric system/image analysis program. For each sample at least 100 cells were evaluated.

[1] = Permeation through Integra bi-layer membrane and human skin in Valia-Chien diffusion cells; assay type: in vitro ADME; settings: aqueous solution pH 7.2, receiver Tris buffer pH 7.2, 8 hours, permeation area 0.64 cm^2, HCl
Method: Permeation studies with aqueous solution of Propranolol HCl (pH 7.2) through Integra and human skin were carried out in Valia-Chien diffusion cells. The effective permeation area was 0.64 cm^2. The receiver compartment contained Tris buffer (pH 7.2) and the experiment lasted for 8 hours. The samples were withdrawn at 0, 1, 2, 4, 6 and 8 hours and the quantity of propranolol HCl permeated through the membrane was analyzed by validated HPLC method.

permeation constant (Kp) through Integra as compared to human skin [1] | permeation constant (Kp) through Integra as compared to human skin ([1]; listed as propranolol) | SMILES | change in Tetrahymena thermophila cell area with increasing drug concentration in the medium (Tetrahymena thermophila)
 |  | C=CCc1ccccc1OCC(O)CNC(C)C (stereo not shown) [Alprenolol hydrochloride] | decrease in the cell area
close similarity | similar | CC(C)NCC(O)COc1cccc2ccccc12 (stereo not shown) [Propranolol HCl] | 
 |  | O=C([O-])c1ccccc1O.[Na+] [sodium salicylate] | decrease in cell area
